US20180016593A1, “HERBICIDE-RESISTANT SUNFLOWER PLANTS, POLYNUCLEOTIDES ENCODING HERBICIDE-RESISTANT ACETOHYDROXYACID SYNTHASE LARGE SUBUNIT PROTEINS, AND METHODS OF USE” (priority 2005, published 2018)
Like-named read-outs stand apart in the source and are kept apart here.

Experiments:
Assay type in all cases: in vivo, Helianthus annuus
[1] = system: sunflower IR79 (Restorer Line, A205V); test: Greenhouse whole-plant imazapir dose response (Example 8); conditions: 14 DAT
Procedure: (§1) A greenhouse study was conducted to quantify and contrast the imazapir sensivity of the mutants A122T and A205V in different genetic backgrounds at the whole plant level in sunflower. Seeds of the different sunflower lines that were used in this study were obtained under field conditions.
(§2) Seeds were sown in Petri dishes and, after germination, plantlets were transplanted to pots of 10 cm of diameter in a potting media consisting of equal parts of vermiculite, soil and sand. Plants were grown in a greenhouse under natural light conditions supplemented with 400 W sodium halide lamps to provide a 16 hrs daylength. Day/night temperatures were 25 and 20° C., respectively. At the V2 stage 10 plants of each genotype were randomly assigned to each treatment consisting of […] imazapir doses (0, 40, 80, 160, 240, 320, 400 and 480 g ai/ha), and a zero-time biomass determination. Experiment was arranged as a randomized block design with a full factorial (sunflower line×treatment) arrangement of treatments and 10 replications.
(§3) On the day of herbicide application ten plants of each genotype were cut at the cotyledonal node and dried at 60° C. for 48 hrs zero-time for dried weight determination.
(§4) Height was determined as the distance between the cotyledonal node and the apex of each plant. For root biomass determination, each plant was taken from the pot and the potting media was washed out from the roots. Above ground biomass data from each line were converted to biomass accumulation after application by subtracting the appropriate average zero-time biomass from each sample. Dry biomass data were converted to percentages of the untreated control plants within each line to allow direct comparisons between groups. […]

[2] = system: sunflower IB920 (Manteiner Line, A205V); test: as above; conditions: 14 DAT
Procedure: as §1, §2, §3, §4

[3] = system: sunflower GM40 (Manteiner Line, A122T); test: as above; conditions: 14 DAT
Procedure: as §1, §2, §3, §4

[4] = system: sunflower GIM 5-7 (Manteiner Line, A205V); test: as above; conditions: GIM5-7, 14 DAT
Procedure: as §1, §2, §3, §4

[5] = system: sunflower TH6 (Hybrid, A122T); conditions: 14 DAT
Procedure: as §1, §2, §3, §4

With `CC(C)C1(C)N=C(c2ncccc2C(=O)O)NC1=O` (stereo not drawn) [imazapyr] the “biomass accumulation (above ground dry weight)” value (“biomass accumulation” for short) ([1]; 0.5x (40 g ai/ha)) was 94.4 % of untreated plots, the plant height ([1]; 0.5x (40 g ai/ha)) was 92.8 % of untreated plots and the root dry weight ([1]; 0.5x (40 g ai/ha)) was 98.6 % of untreated plots. For the same molecule, the “biomass accumulation” value ([1]; 1x (80 g ai/ha)) was 74.0 % of untreated plots, the plant height ([1]; 1x (80 g ai/ha)) was 80.9 % of untreated plots and the root dry weight ([1]; 1x (80 g ai/ha)) was 53.4 % of untreated plots. The “biomass accumulation” value ([1]; 2x (160 g ai/ha)) was 67.7 % of untreated plots, the plant height ([1]; 2x (160 g ai/ha)) was 74.9 % of untreated plots and the root dry weight ([1]; 2x (160 g ai/ha)) was 42.5 % of untreated plots. The “biomass accumulation” value ([1]; 3x (240 g ai/ha)) was 49.1 % of untreated plots, the plant height ([1]; 3x (240 g ai/ha)) was 55.7 % of untreated plots and the root dry weight ([1]; 3x (240 g ai/ha)) was 38.4 % of untreated plots. For the same molecule, the “biomass accumulation” value ([1]; 4x (320 g ai/ha)) was 44.5 % of untreated plots, the plant height ([1]; 4x (320 g ai/ha)) was 52.8 % of untreated plots and the root dry weight ([1]; 4x (320 g ai/ha)) was 31.5 % of untreated plots. For the same molecule, the “biomass accumulation” value ([1]; 5x (400 g ai/ha)) was 40.1 % of untreated plots, the plant height ([1]; 5x (400 g ai/ha)) was 41.7 % of untreated plots and the root dry weight ([1]; 5x (400 g ai/ha)) was 23.3 % of untreated plots. The “biomass accumulation” value ([1]; 6x (480 g ai/ha)) was 35.3 % of untreated plots, the plant height ([1]; 6x (480 g ai/ha)) was 33.2 % of untreated plots and the root dry weight ([1]; 6x (480 g ai/ha)) was 21.9 % of untreated plots. The “biomass accumulation” value ([2]; 0.5x (40 g ai/ha)) was 93.9 % of untreated plots, the plant height ([2]; 0.5x (40 g ai/ha)) was 96.2 % of untreated plots and the root dry weight ([2]; 0.5x (40 g ai/ha)) was 94.0 % of untreated plots. For the same molecule, the “biomass accumulation” value ([2]; 1x (80 g ai/ha)) was 87.9 % of untreated plots, the plant height ([2]; 1x (80 g ai/ha)) was 80.0 % of untreated plots and the root dry weight ([2]; 1x (80 g ai/ha)) was 89.6 % of untreated plots. The “biomass accumulation” value ([2]; 2x (160 g ai/ha)) was 58.8 % of untreated plots, the plant height ([2]; 2x (160 g ai/ha)) was 61.5 % of untreated plots and the root dry weight ([2]; 2x (160 g ai/ha)) was 50.7 % of untreated plots. The “biomass accumulation” value ([2]; 3x (240 g ai/ha)) was 48.4 % of untreated plots, the plant height ([2]; 3x (240 g ai/ha)) was 40.9 % of untreated plots and the root dry weight ([2]; 3x (240 g ai/ha)) was 37.3 % of untreated plots. The “biomass accumulation” value ([2]; 4x (320 g ai/ha)) was 35.5 % of untreated plots, the plant height ([2]; 4x (320 g ai/ha)) was 27.9 % of untreated plots and the root dry weight ([2]; 4x (320 g ai/ha)) was 32.8 % of untreated plots. The plant height ([2]; 5x (400 g ai/ha)) was 30.0 % of untreated plots, the root dry weight ([2]; 5x (400 g ai/ha)) was 25.4 % of untreated plots and the “biomass accumulation” value ([2]; 6x (480 g ai/ha)) was 29.4 % of untreated plots. The plant height ([2]; 6x (480 g ai/ha)) was 27.1 % of untreated plots, the root dry weight ([2]; 6x (480 g ai/ha)) was 19.4 % of untreated plots and the “biomass accumulation” value ([3]; 0.5x (40 g ai/ha)) was 96.5 % of untreated plots. For the same molecule, the plant height ([3]; 0.5x (40 g ai/ha)) was 99.6 % of untreated plots, the root dry weight ([3]; 0.5x (40 g ai/ha)) was 100 % of untreated plots and the “biomass accumulation” value ([3]; 1x (80 g ai/ha)) was 94.1 % of untreated plots. For the same molecule, the plant height ([3]; 1x (80 g ai/ha)) was 97.4 % of untreated plots, the root dry weight ([3]; 1x (80 g ai/ha)) was 100 % of untreated plots and the “biomass accumulation” value ([3]; 2x (160 g ai/ha)) was 97.6 % of untreated plots. For the same molecule, the plant height ([3]; 2x (160 g ai/ha)) was 95.2 % of untreated plots, the root dry weight ([3]; 2x (160 g ai/ha)) was 100 % of untreated plots and the “biomass accumulation” value ([3]; 3x (240 g ai/ha)) was 95.8 % of untreated plots. The plant height ([3]; 3x (240 g ai/ha)) was 93.0 % of untreated plots, the root dry weight ([3]; 3x (240 g ai/ha)) was 92.2 % of untreated plots and the “biomass accumulation” value ([3]; 4x (320 g ai/ha)) was 88.3 % of untreated plots. For the same molecule, the plant height ([3]; 4x (320 g ai/ha)) was 93.0 % of untreated plots, the root dry weight ([3]; 4x (320 g ai/ha)) was 98.1 % of untreated plots and the “biomass accumulation” value ([3]; 5x (400 g ai/ha)) was 85.6 % of untreated plots. For the same molecule, the plant height ([3]; 5x (400 g ai/ha)) was 93.9 % of untreated plots, the root dry weight ([3]; 5x (400 g ai/ha)) was 84.2 % of untreated plots and the “biomass accumulation” value ([3]; 6x (480 g ai/ha)) was 76.8 % of untreated plots. The plant height ([3]; 6x (480 g ai/ha)) was 84.3 % of untreated plots, the root dry weight ([3]; 6x (480 g ai/ha)) was 74.3 % of untreated plots and the “biomass accumulation” value ([4]; 0.5x (40 g ai/ha)) was 92.9 % of untreated plots. For the same molecule, the plant height ([4]; 0.5x (40 g ai/ha)) was 79.1 % of untreated plots, the root dry weight ([4]; 0.5x (40 g ai/ha)) was 79.2 % of untreated plots and the “biomass accumulation” value ([4]; 1x (80 g ai/ha)) was 75.1 % of untreated plots. For the same molecule, the plant height ([4]; 1x (80 g ai/ha)) was 76.7 % of untreated plots, the root dry weight ([4]; 1x (80 g ai/ha)) was 56.3 % of untreated plots and the “biomass accumulation” value ([4]; 2x (160 g ai/ha)) was 55.1 % of untreated plots. For the same molecule, the plant height ([4]; 2x (160 g ai/ha)) was 57.7 % of untreated plots, the root dry weight ([4]; 2x (160 g ai/ha)) was 40.6 % of untreated plots and the “biomass accumulation” value ([4]; 3x (240 g ai/ha)) was 45.6 % of untreated plots. For the same molecule, the plant height ([4]; 3x (240 g ai/ha)) was 55.3 % of untreated plots, the root dry weight ([4]; 3x (240 g ai/ha)) was 40.2 % of untreated plots and the “biomass accumulation” value ([4]; 4x (320 g ai/ha)) was 31.8 % of untreated plots. The plant height ([4]; 4x (320 g ai/ha)) was 27.3 % of untreated plots, the root dry weight ([4]; 4x (320 g ai/ha)) was 34.0 % of untreated plots and the “biomass accumulation” value ([4]; 5x (400 g ai/ha)) was 34.2 % of untreated plots. The plant height ([4]; 5x (400 g ai/ha)) was 37.2 % of untreated plots, the root dry weight ([4]; 5x (400 g ai/ha)) was 48.5 % of untreated plots and the “biomass accumulation” value ([4]; 6x (480 g ai/ha)) was 36.8 % of untreated plots. The plant height ([4]; 6x (480 g ai/ha)) was 30.0 % of untreated plots, the root dry weight ([4]; 6x (480 g ai/ha)) was 43.1 % of untreated plots and the “Phytotoxicity Index” value ([5]; 0.5x (40 g ai/ha)) was 0.5. For the same molecule, the “biomass accumulation” value ([5]; 0.5x (40 g ai/ha)) was 100 % of untreated plots, the plant height ([5]; 0.5x (40 g ai/ha)) was 99.2 % of untreated plots and the root dry weight ([5]; 0.5x (40 g ai/ha)) was 100 % of untreated plots. For the same molecule, the “Phytotoxicity Index” value ([5]; 1x (80 g ai/ha)) was 0.5, the “biomass accumulation” value ([5]; 1x (80 g ai/ha)) was 97.2 % of untreated plots and the plant height ([5]; 1x (80 g ai/ha)) was 98.6 % of untreated plots. For the same molecule, the root dry weight ([5]; 1x (80 g ai/ha)) was 98.1 % of untreated plots, the “Phytotoxicity Index” value ([5]; 2x (160 g ai/ha)) was 0.5 and the “biomass accumulation” value ([5]; 2x (160 g ai/ha)) was 97.9 % of untreated plots. The plant height ([5]; 2x (160 g ai/ha)) was 100.3 % of untreated plots, the root dry weight ([5]; 2x (160 g ai/ha)) was 98.2 % of untreated plots and the “Phytotoxicity Index” value ([5]; 3x (240 g ai/ha)) was 0.5. For the same molecule, the “biomass accumulation” value ([5]; 3x (240 g ai/ha)) was 98.2 % of untreated plots, the plant height ([5]; 3x (240 g ai/ha)) was 99.8 % of untreated plots and the root dry weight ([5]; 3x (240 g ai/ha)) was 79.3 % of untreated plots. The “Phytotoxicity Index” value ([5]; 4x (320 g ai/ha)) was 0.5, the “biomass accumulation” value ([5]; 4x (320 g ai/ha)) was 97.8 % of untreated plots and the plant height ([5]; 4x (320 g ai/ha)) was 101.0 % of untreated plots. The root dry weight ([5]; 4x (320 g ai/ha)) was 78.4 % of untreated plots, the “Phytotoxicity Index” value ([5]; 5x (400 g ai/ha)) was 0.5 and the “biomass accumulation” value ([5]; 5x (400 g ai/ha)) was 85.1 % of untreated plots. The plant height ([5]; 5x (400 g ai/ha)) was 87.0 % of untreated plots, the root dry weight ([5]; 5x (400 g ai/ha)) was 85.8 % of untreated plots and the “Phytotoxicity Index” value ([5]; 6x (480 g ai/ha)) was 0.5. For the same molecule, the “biomass accumulation” value ([5]; 6x (480 g ai/ha)) was 79.5 % of untreated plots, the plant height ([5]; 6x (480 g ai/ha)) was 79.6 % of untreated plots and the root dry weight ([5]; 6x (480 g ai/ha)) was 57.3 % of untreated plots.
